“And” between values parts separate entries of the source, which are not always exact repeats. Identical values can stand only once. Toxic doses and inconclusive results are not listed. How the source made its calls: active means survival T/C of 150% or more; inactive means T/C below 125% in these data.
System: P388 leukemia ip, CD2F1 mice, survival T/C
Experiment: NCI In Vivo Anticancer Drug Screen. Data for tumor model P388 Leukemia (intraperitoneal) in CD2F1 (CDF1) mice
Conditions: endpoint: median survival time, higher = longer survival
Method in brief: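 Mice carrying the transplanted tumor received test compound or vehicle. Survival was recorded in each group, and the value is the treated-group measurement divided by that of the vehicle-treated control group.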

[1] = dose: 50.0 mg/kg/injection, schedule: Q01DX009 (ip), vehicle: Klucel (hydroxypropylcellulose) (HPC)
[2] = dose: 100.0 mg/kg/injection, schedule: Q01DX009 (ip), vehicle: Klucel (hydroxypropylcellulose) (HPC)
[3] = dose: 200.0 mg/kg/injection, schedule: Q01DX009 (ip), vehicle: Klucel (hydroxypropylcellulose) (HPC)
[4] = dose: 60.0 mg/kg/injection, schedule: Q01DX005 (ip), vehicle: saline with Tween-80
[5] = dose: 120.0 mg/kg/injection, schedule: Q01DX005 (ip), vehicle: saline with Tween-80
[6] = dose: 240.0 mg/kg/injection, schedule: Q01DX005 (ip), vehicle: saline with Tween-80
[7] = dose: 50.0 mg/kg/injection, schedule: Q01DX009 (ip), vehicle: saline with Tween-80
[8] = dose: 100.0 mg/kg/injection, schedule: Q01DX009 (ip), vehicle: saline with Tween-80
[9] = dose: 200.0 mg/kg/injection, schedule: Q01DX009 (ip), vehicle: saline with Tween-80
[10] = dose: 25.0 mg/kg/injection, schedule: Q01DX009 (ip), vehicle: saline with Tween-80
[11] = dose: 50.0 mg/kg/injection, schedule: Q01DX009 (ip), vehicle: other
[12] = dose: 100.0 mg/kg/injection, schedule: Q01DX009 (ip), vehicle: other
[13] = dose: 200.0 mg/kg/injection, schedule: Q01DX009 (ip), vehicle: other

Measured: T/C

COc1cc2c3c(c1)-c1c(ccc(OC)c1O)CC3N(C)CC2 (stereo not given)
inactive: dose: 6.25 mg/kg/injection, schedule: Q04DX003 (ip), vehicle: DMSO 101 % of control | dose: 12.5 mg/kg/injection, schedule: Q04DX003 (ip), vehicle: DMSO 101 % of control | dose: 25.0 mg/kg/injection, schedule: Q04DX003 (ip), vehicle: DMSO 100 % of control | dose: 50.0 mg/kg/injection, schedule: Q04DX003 (ip), vehicle: DMSO 100 % of control

CC(=O)OC1=CC(=O)N(C(=O)c2ccccc2)C1
inactive: [1] 105 % of control | [2] 116 % of control | [3] 113 % of control

CN(C)c1ccc(/C=C/c2cc[n+](C)cc2)cc1
inactive: dose: 2.0 mg/kg/injection, schedule: Q01DX009 (ip), vehicle: saline with Tween-80 110 % of control | dose: 2.0 mg/kg/injection, schedule: Q04DX003 (ip), vehicle: saline with Tween-80 91 % of control | dose: 4.0 mg/kg/injection, schedule: Q01DX009 (ip), vehicle: saline with Tween-80 100 % of control | dose: 4.0 mg/kg/injection, schedule: Q04DX003 (ip), vehicle: saline with Tween-80 100 % of control | dose: 8.0 mg/kg/injection, schedule: Q01DX009 (ip), vehicle: saline with Tween-80 100 % of control | dose: 8.0 mg/kg/injection, schedule: Q04DX003 (ip), vehicle: saline with Tween-80 108 % of control

Cc1cccc(Cl)c1NC(=O)NCCCN1CCOCC1
inactive: [4] 102 % of control | [5] 100 % of control | [6] 112 % of control

CC(c1ccccc1)C1CC1 (stereo not given)
inactive: [7] 103 % of control | [8] 107 % of control | [9] 98 % of control

CC(=O)C1C(=O)C(=O)N(c2cc(C)ccc2O)C1=O (stereo not given)
inactive: [1] 106 % of control | [2] 107 % of control | [3] 104 % of control

CC(=O)OC[N+]1(C)CCCCC1
inactive: [7] 111 % of control | [8] 106 % of control | [9] 116 % of control

OCC1OC(n2nnc3cc[nH]c(=S)c32)C(O)C1O (stereo not given)
inactive: dose: 1.56 mg/kg/injection, schedule: Q01DX009 (ip), vehicle: water 106 % of control | dose: 3.13 mg/kg/injection, schedule: Q01DX009 (ip), vehicle: water 99 % of control | dose: 6.25 mg/kg/injection, schedule: Q01DX009 (ip), vehicle: water 98 % of control | dose: 12.5 mg/kg/injection, schedule: Q01DX009 (ip), vehicle: water 107 % of control | dose: 25.0 mg/kg/injection, schedule: Q01DX009 (ip), vehicle: water 97 % of control

CCN(C=Nc1ccc(Cl)cc1C)CC
inactive: [1] 105 % of control | [2] 117 % of control

COc1cc(C2CC(=O)N(c3ccc(C)cc3)C(=O)C2)cc(OC)c1OC
inactive: dose: 25.0 mg/kg/injection, schedule: Q01DX005 (ip), vehicle: Klucel + Tween-80 98 % of control | dose: 50.0 mg/kg/injection, schedule: Q01DX005 (ip), vehicle: Klucel + Tween-80 100 % of control and 105 % of control and 122 % of control | dose: 50.0 mg/kg/injection, schedule: Q01DX009 (ip), vehicle: Klucel + Tween-80 108 % of control | dose: 100.0 mg/kg/injection, schedule: Q01DX005 (ip), vehicle: Klucel + Tween-80 106 % of control and 110 % of control (2×) | dose: 114.0 mg/kg/injection, schedule: Q01DX009 (ip), vehicle: Klucel + Tween-80 117 % of control | dose: 175.0 mg/kg/injection, schedule: Q01DX009 (ip), vehicle: Klucel + Tween-80 122 % of control | dose: 200.0 mg/kg/injection, schedule: Q01DX005 (ip), vehicle: Klucel + Tween-80 110 % of control and 114 % of control and 122 % of control | dose: 264.0 mg/kg/injection, schedule: Q01DX009 (ip), vehicle: Klucel + Tween-80 93 % of control | dose: 400.0 mg/kg/injection, schedule: Q01DX009 (ip), vehicle: Klucel + Tween-80 92 % of control

[Cl][Cu][Cl]
inactive: dose: 3.13 mg/kg/injection, schedule: Q04DX003 (ip), vehicle: saline 90 % of control | dose: 6.25 mg/kg/injection, schedule: Q04DX003 (ip), vehicle: saline 104 % of control

CCOC(=O)N1CCN(C(=O)c2nc3ccc(Cl)cc3[nH]2)CC1
inactive: dose: 50.0 mg/kg/injection, schedule: Q01DX005 (ip), vehicle: Klucel (hydroxypropylcellulose) (HPC) 108 % of control | dose: 100.0 mg/kg/injection, schedule: Q01DX005 (ip), vehicle: Klucel (hydroxypropylcellulose) (HPC) 87 % of control | dose: 200.0 mg/kg/injection, schedule: Q01DX005 (ip), vehicle: Klucel (hydroxypropylcellulose) (HPC) 93 % of control

CSc1nc2cc(Cl)ccc2c2c1C=NCCN2
inactive: dose: 12.5 mg/kg/injection, schedule: Q04DX003 (ip), vehicle: saline 97 % of control | dose: 25.0 mg/kg/injection, schedule: Q04DX003 (ip), vehicle: saline 96 % of control | dose: 50.0 mg/kg/injection, schedule: Q04DX003 (ip), vehicle: saline 103 % of control | dose: 50.0 mg/kg/injection, schedule: Q04DX003 (ip), vehicle: suspension in saline 103 % of control

CC(Cl)CN1CC(C)OC1=O (stereo not given)
inactive: dose: 25.0 mg/kg/injection, schedule: Q01DX001 (ip), vehicle: saline 105 % of control | dose: 50.0 mg/kg/injection, schedule: Q01DX001 (ip), vehicle: saline 102 % of control | dose: 100.0 mg/kg/injection, schedule: Q01DX001 (ip), vehicle: saline 108 % of control | dose: 200.0 mg/kg/injection, schedule: Q01DX001 (ip), vehicle: saline 108 % of control

NNc1cccc(C(F)(F)F)c1
inactive: dose: 12.5 mg/kg/injection, schedule: Q01DX009 (ip), vehicle: saline with Tween-80 100 % of control | [10] 90 % of control | dose: 25.0 mg/kg/injection, schedule: Q04DX003 (ip), vehicle: saline with Tween-80 100 % of control | [7] 95 % of control | dose: 50.0 mg/kg/injection, schedule: Q04DX003 (ip), vehicle: saline with Tween-80 105 % of control | dose: 100.0 mg/kg/injection, schedule: Q04DX003 (ip), vehicle: saline with Tween-80 100 % of control

CNC(=O)OCC1=C(COC(=O)NC)C(=O)c2ccccc2C1=O
inactive: dose: 6.25 mg/kg/injection, schedule: Q01DX005 (ip), vehicle: Klucel (hydroxypropylcellulose) (HPC) 96 % of control | dose: 12.5 mg/kg/injection, schedule: Q01DX005 (ip), vehicle: Klucel (hydroxypropylcellulose) (HPC) 105 % of control | dose: 25.0 mg/kg/injection, schedule: Q01DX005 (ip), vehicle: Klucel (hydroxypropylcellulose) (HPC) 112 % of control

CCOC(=O)C1CCCC(=O)C1Cc1cccc(OC)c1 (stereo not given)
inactive: [11] 100 % of control | [12] 106 % of control | [13] 100 % of control

O=C1C(c2cnc3c(n2)CCC=C3)=C(O)c2ccccc21
inactive: [4] 99 % of control | [5] 100 % of control | [6] 100 % of control

COc1ccc(OC)c(C=C(C(C)=O)C(C)=O)c1
inactive: dose: 25.0 mg/kg/injection, schedule: Q01DX009 (ip), vehicle: other 111 % of control | [11] 105 % of control | [12] 109 % of control | [13] 108 % of control | dose: 400.0 mg/kg/injection, schedule: Q01DX009 (ip), vehicle: other 115 % of control

CN1CCCC(OC(=O)Oc2ccccc2)C1 (stereo not given)
inactive: dose: 50.0 mg/kg/injection, schedule: Q01DX001 (ip), vehicle: other 101 % of control | dose: 100.0 mg/kg/injection, schedule: Q01DX001 (ip), vehicle: other 100 % of control | dose: 200.0 mg/kg/injection, schedule: Q01DX001 (ip), vehicle: other 102 % of control | dose: 400.0 mg/kg/injection, schedule: Q01DX001 (ip), vehicle: other 99 % of control

CC(=O)Nc1ccc(C(=O)O)c([N+](=O)[O-])c1
inactive: dose: 25.0 mg/kg/injection, schedule: Q01DX009 (ip), vehicle: Klucel (hydroxypropylcellulose) (HPC) 100 % of control | [1] 107 % of control | [2] 102 % of control | [3] 107 % of control

CSC(=S)NC#N
inactive: [10] 111 % of control | [7] 100 % of control | [8] 107 % of control | [9] 108 % of control

NS(=O)(=O)c1ncnc2nc[nH]c12
inactive: dose: 10.0 mg/kg/injection, schedule: Q01DX009 (ip), vehicle: saline with Tween-80 112 % of control | dose: 15.0 mg/kg/injection, schedule: Q01DX009 (ip), vehicle: saline with Tween-80 112 % of control | dose: 30.0 mg/kg/injection, schedule: Q01DX009 (ip), vehicle: saline with Tween-80 90 % of control | dose: 60.0 mg/kg/injection, schedule: Q01DX009 (ip), vehicle: saline with Tween-80 104 % of control
